Assay [1] concerns K562 (human chronic myelogenous leukemia) cells. The experiment in a line: Cell Titer Glo 2.0 cell viability assay. The class given is cell-based. Conditions: Homo sapiens, K562, 72 h, K562 cells, 72 hours, Cell Titer Glo 2.0; read-out: K562 GI50. In general terms: In ATP-based viability assays light output follows the ATP content of the culture.
In assay [2] the test system is SMN2 mRNA. The experiment in a line: RT-qPCR splicing assay, SMN2 canonical junction (CJ) mRNA. The class given is cell-based, human. Conditions: Homo sapiens; Table 5 panel; canonical junction qPCR; compound concentration having 50% response in CJ decrease; read-out: SMN2 IC50 (decrease in CJ mRNA levels). In a few lines: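 K562/A673 cells, 11-pt 3-fold compound titration from 10 uM final, DMSO ≤0.25%, 24 h 37 °C 5% CO2; lyse (DNase I or Igepal/Tris buffer pH 7.4); RT-qPCR for CJ isoform vs housekeeping gene (GAPDH/GUSB/PPIA).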
On the technique in general: Quantitative PCR measures a nucleic acid by following its amplification.

Structures can show the parent of a compound that is named as a salt. Where only a bound is given, the exact number is not on record here.

One may read the GI50 as the concentration at which growth is held to half of that of the control. By IC50 is commonly meant the point on the concentration scale where inhibition reaches its midpoint. Take `Cc1cc(-c2ccc3c(=O)n(N4CCN(C)CC4)cnc3c2)cc2cn(C)nc12` [Compound 175]: the GI50 in assay [1] was 1 to 10 µM. In assay [2], the IC50 is 1 to 10 µM.

Turning to `Cc1cn2nc(-c3ccc4c(=O)n(C5CCN(C)CC5)cnc4c3)cc(C)c2n1` [Compound 176], the GI50 in assay [1] lay within 1 to 10 µM. Further, the IC50 in assay [2] fell in the range of 0.1 to 1 µM.

Take `CN1CCC(c2ccc3c(=O)n(-c4ccc5nn(C)cc5c4)cnc3c2)CC1` [Compound 177]: the 50% growth inhibitory concentration (GI50) in assay [1] is more than 10 µM. The IC50 in assay [2] was more than 10 µM.

Take `CN1CCN(c2ccc3c(=O)n(-c4ccc5cn(C)nc5c4)cnc3c2)CC1` [Compound 178]: the GI50 in assay [1] is more than 10 µM. In addition, the IC50 in assay [2] was more than 10 µM.

Turning to `Cc1cc(-c2ccc3c(=O)n(C4CC(C)(C)NC(C)(C)C4)cnc3n2)cc2cn(C)nc12` [Compound 179], in assay [1], the GI50 is more than 10 µM. Besides, the IC50 in assay [2] was in the range of 1 to 10 µM.

For the compound `CN(c1ccc2c(=O)n(-c3ccc4nn(C)cc4c3)cnc2c1)C1CCNCC1` [Compound 180], in assay [1], the 50% growth inhibitory concentration (GI50) is more than 10 µM. The IC50 in assay [2] is more than 10 µM.

As for `Cc1cn2nc(-c3ccc4c(=O)n(C5CCNCC5)cnc4c3)cc(C)c2n1` [Compound 181], the 50% growth inhibitory concentration (GI50) in assay [1] lay within 0.1 to 1 µM. Further, the IC50 in assay [2] is less than 0.1 µM.

In the case of `Cc1cc(-c2ccc3c(=O)n(C4CCNC5(CC5)C4)ncc3c2)cc2cn(C)nc12` (stereo not drawn) [Compound 512], in assay [1], the 50% growth inhibitory concentration (GI50) is 1 to 10 µM. The IC50 in assay [2] lay in the range of 0.1 to 1 µM.

With `Cc1nc2c(C)cc(-c3ccc4c(=O)n(C5CCNC6(CC6)C5)ncc4c3)cc2o1` (stereo not drawn) [Compound 513], the GI50 in assay [1] lay within 1 to 10 µM. Also, the half-maximal inhibitory concentration (IC50) in assay [2] lay within 0.1 to 1 µM.

On to `COc1cc(-c2ccc3c(=O)n(C4CCNCC4)ccc3c2)nn2cc(C)nc12` [Compound 514, 6-(8-methoxy-2-methyl-imidazo[1,2-b]pyridazin-6-yl)-2-(4-piperidyl) isoquinolin-1-one; hydrochloride], for which, in assay [1], the 50% growth inhibitory concentration (GI50) is less than 0.1 µM. Besides, the IC50 in assay [2] was less than 0.1 µM.

As for `Cc1cn2nc(-c3ccc4c(=O)n(C5CCN(CCF)CC5)ncc4c3)cc(C)c2n1` [Compound 515], the GI50 in assay [1] fell in the range of 1 to 10 µM. For the same compound, the 50% inhibitory concentration (IC50) in assay [2] was less than 0.1 µM.

Consider `Cc1cn2nc(-c3ccc4c(=O)n(C5CCNCC5)ccc4c3)cc(C(=O)O)c2n1` [Compound 516, 2-methyl-6-[1-oxo-2-(4-piperidyl)-6-isoquinolyl]imidazo[1,2-b]pyridazine-8-carboxylic acid], for which the GI50 in assay [1] fell in the range of 1 to 10 µM. In assay [2], the IC50 was 1 to 10 µM.

`COC(=O)c1cc(-c2ccc3c(=O)n(C4CCNCC4)ccc3c2)nn2cc(C)nc12` [Compound 517, methyl 2-methyl-6-[1-oxo-2-(4-piperidyl)-6-isoquinolyl]imidazo[1,2-b]pyridazine-8-carboxylate]: the GI50 in assay [1] lay in the range of 1 to 10 µM. Further, the half-inhibitory concentration (IC50) in assay [2] was less than 0.1 µM.

In the case of `CNC(=O)c1cc(-c2ccc3c(=O)n(C4CCNCC4)ccc3c2)nn2cc(C)nc12` [Compound 518, N, 2-dimethyl-6-[1-oxo-2-(4-piperidyl)-6-isoquinolyl]imidazo[1,2-b]pyridazine-8-carboxamide], the GI50 in assay [1] fell in the range of 1 to 10 µM. In addition, in assay [2], the IC50 is 0.1 to 1 µM.

Regarding `Cc1cn2nc(-c3ccc4c(=O)n(C5CCNCC5)ccc4c3)cc(Oc3ccccc3)c2n1` [Compound 519, 6-(2-methyl-8-phenoxy-imidazo[1,2-b]pyridazin-6-yl)-2-(4-piperidyl)isoquinolin-1-one], in assay [1], the GI50 is less than 0.1 µM. The 50% inhibitory concentration (IC50) in assay [2] is less than 0.1 µM.

For `Cc1cn2nc(-c3ccc4c(=O)n(C5CCNCC5)ccc4c3)cc(CC#N)c2n1` [Compound 520, 2-[2-methyl-6-[1-oxo-2-(4-piperidyl)-6-isoquinolyl]imidazo[1,2-b]pyridazin-8-yl]acetonitrile], in assay [1], the GI50 is 1 to 10 µM. Besides, in assay [2], the IC50 was less than 0.1 µM.

As to `Cn1ccc2c(cnn2-c2ccc3c(=O)n(C4CCNCC4)ccc3c2)c1=O` [Compound 521], in assay [1], the GI50 fell in the range of 1 to 10 µM. The half-maximal inhibitory concentration (IC50) in assay [2] was 1 to 10 µM.

For `Cn1ccc2nn(-c3ccc4c(=O)n(C5CCNCC5)ccc4c3)cc2c1=O` [Compound 522, 6-{5-methyl-4-oxopyrazolo[4,3-c]pyridin-2-yl}-2-(piperidin-4-yl)isoquinolin-1-one], the 50% growth inhibitory concentration (GI50) in assay [1] lay within 1 to 10 µM. Further, the IC50 in assay [2] lay in the range of 1 to 10 µM.

As to `Cc1cn2nc(-c3ccc4c(=O)n(C5CCNCC5)ccc4c3)cc(C(N)=O)c2n1` [Compound 523, 2-methyl-6-[1-oxo-2-(4-piperidyl)-6-isoquinolyl]imidazo[1,2-b]pyridazine-8-carboxamide], the GI50 in assay [1] lay in the range of 1 to 10 µM. For the same compound, the IC50 in assay [2] lay within 0.1 to 1 µM.

As to `Cc1cn2nc(-c3ccc4c(=O)n(C5CCNCC5)ccc4c3)cc(C(=O)N(C)C)c2n1` [Compound 524, N, N, 2-trimethyl-6-[1-oxo-2-(4-piperidyl)-6-isoquinolyl]imidazo[1,2-b]pyridazine-8-carboxamide], in assay [1], the GI50 is more than 10 µM. Further, the IC50 in assay [2] is more than 10 µM.

In the case of `Cc1cn2nc(-c3ccc4c(=O)n(C5CCNCC5)ccc4c3)cc(CO)c2n1` [Compound 525, 6-[8-(hydroxymethyl)-2-methyl-imidazo[1,2-b]pyridazin-6-yl]-2-(4-piperidyl) isoquinolin-1-one], the concentration for 50% growth inhibition (GI50) in assay [1] lay in the range of 0.1 to 1 µM. For the same compound, the concentration for half-maximal inhibition (IC50) in assay [2] was less than 0.1 µM.

In the case of `Cc1cn2nc(-c3ccc4c(=O)n(C5CCNCC5)ccc4c3)cc(OCc3ccccc3)c2n1` [Compound 526, 6-(8-benzyloxy-2-methyl-imidazo[1,2-b]pyridazin-6-yl)-2-(4-piperidyl) isoquinolin-1-one], in assay [1], the GI50 was 0.1 to 1 µM. The IC50 in assay [2] is less than 0.1 µM.

Consider `COC(=O)Cc1cc(-c2ccc3c(=O)n(C4CCNCC4)ccc3c2)nn2cc(C)nc12` [Compound 527], for which the 50% growth inhibitory concentration (GI50) in assay [1] lay within 1 to 10 µM. For the same compound, the IC50 in assay [2] is less than 0.1 µM.

For the compound `Cc1cn2nc(-c3ccc4c(=O)n(C5CCNCC5)ccc4c3)cc(CC(N)=O)c2n1` [Compound 528, 2-(2-methyl-6-(1-oxo-2-(piperidin-4-yl)-1,2-dihydroisoquinolin-6-yl)imidazo[1,2-b]pyridazin-8-yl) acetamide], the concentration for 50% growth inhibition (GI50) in assay [1] is 1 to 10 µM. Besides, the half-inhibitory concentration (IC50) in assay [2] is less than 0.1 µM.

As to `CCOC(=O)c1cc(-c2ccc3c(=O)n(C4CCNCC4)ccc3c2)nn2cc(C)nc12` [Compound 529, ethyl 2-methyl-6-[1-oxo-2-(4-piperidyl)-6-isoquinolyl]imidazo[1,2-b]pyridazine-8-carboxylate], in assay [1], the GI50 was in the range of 1 to 10 µM. Further, the half-maximal inhibitory concentration (IC50) in assay [2] is less than 0.1 µM.

`Cn1cc2c(=O)n(-c3ccc4c(=O)n(C5CCNCC5)ccc4c3)ccc2n1` [Compound 530, 6-{2-methyl-4-oxopyrazolo[4,3-c]pyridin-5-yl}-2-(piperidin-4-yl)isoquinolin-1-one]: the GI50 in assay [1] was more than 10 µM. Also, the concentration for half-maximal inhibition (IC50) in assay [2] is more than 10 µM.

Take `Cc1cn2nc(-c3ccc4c(=O)n(C5CCNCC5)ccc4c3)cc(CC(=O)O)c2n1` [Compound 531, 2-[2-methyl-6-[1-oxo-2-(4-piperidyl)-6-isoquinolyl]imidazo[1,2-b]pyridazin-8-yl]acetic acid]: in assay [1], the 50% growth inhibitory concentration (GI50) lay in the range of 0.1 to 1 µM. For the same compound, the IC50 in assay [2] was less than 0.1 µM.

`Cc1cn2nc(-c3ccc4c(=O)n(C5CCNCC5)ccc4c3)cc(CCO)c2n1` [Compound 533, 6-[8-(2-hydroxyethyl)-2-methyl-imidazo[1,2-b]pyridazin-6-yl]-2-(4-piperidyl)isoquinolin-1-one]: the GI50 in assay [1] lay within 0.1 to 1 µM. The IC50 in assay [2] is less than 0.1 µM.

`CNC(=O)Cc1cc(-c2ccc3c(=O)n(C4CCNCC4)ccc3c2)nn2cc(C)nc12` [Compound 534, N-methyl-2-[2-methyl-6-[1-oxo-2-(4-piperidyl)-6-isoquinolyl]imidazo[1,2-b]pyridazin-8-yl]acetamide]: the GI50 in assay [1] lay within 1 to 10 µM. Further, the concentration for half-maximal inhibition (IC50) in assay [2] was less than 0.1 µM.

In the case of `Cc1cn2nc(-c3ccc4c(=O)n(C5CCNCC5)ccc4c3)cc(Cc3nnc[nH]3)c2n1` [Compound 535, 6-[2-methyl-8-(4H-1,2,4-triazol-3-ylmethyl)imidazo[1,2-b]pyridazin-6-yl]-2-(4-piperidyl) isoquinolin-1-one], the GI50 in assay [1] was 1 to 10 µM. Further, in assay [2], the IC50 was less than 0.1 µM.

Take `Cc1cn2nc(-c3ccc4c(=O)n(C5CCNCC5)ccc4c3)cc(Cc3nnn[nH]3)c2n1` [Compound 536, 6-[2-methyl-8-(1H-tetrazol-5-ylmethyl)imidazo[1,2-b]pyridazin-6-yl]-2-(4-piperidyl) isoquinolin-1-one]: the concentration for 50% growth inhibition (GI50) in assay [1] was more than 10 µM. In assay [2], the concentration for half-maximal inhibition (IC50) is 1 to 10 µM.

`CCN1CCC(n2ncc3cc(-c4cc(C)c5nc(C)cn5n4)cc(F)c3c2=O)CC1` [Compound 537]: in assay [1], the 50% growth inhibitory concentration (GI50) lay within 0.1 to 1 µM. In addition, the IC50 in assay [2] is less than 0.1 µM.

For `Cc1cn2nc(-c3cc(F)c4c(=O)n(C5CCN(CCF)CC5)ncc4c3)cc(C)c2n1` [Compound 538], the GI50 in assay [1] was 0.1 to 1 µM. Moreover, the half-maximal inhibitory concentration (IC50) in assay [2] was less than 0.1 µM.

For the compound `Cc1cn2nc(-c3cc(F)c4c(=O)n(C5CCN(C)CC5)ncc4c3)cc(C)c2n1` [Compound 539], the 50% growth inhibitory concentration (GI50) in assay [1] lay in the range of 0.1 to 1 µM. Further, in assay [2], the IC50 is less than 0.1 µM.

As to `Cc1cn2nc(-c3cc(F)c4c(=O)n(C5CCNCC5)ncc4c3)cc(C)c2n1` [Compound 540], the GI50 in assay [1] was less than 0.1 µM. Besides, the half-maximal inhibitory concentration (IC50) in assay [2] was less than 0.1 µM.

`Cc1cn2nc(-c3cc(O)c4c(=O)n(C5CCNCC5)ncc4c3)cc(C)c2n1` [Compound 541]: the GI50 in assay [1] is less than 0.1 µM. Further, the IC50 in assay [2] is less than 0.1 µM.

Regarding `CCN1CCC(n2ncc3cc(-c4cc(C)c5nc(C)cn5n4)cc(O)c3c2=O)CC1` [Compound 542], the GI50 in assay [1] lay in the range of 0.1 to 1 µM. The IC50 in assay [2] is less than 0.1 µM.

On to `Cc1cn2nc(-c3cc(O)c4c(=O)n(C5CCN(C)CC5)ncc4c3)cc(C)c2n1` [Compound 543], for which the concentration for 50% growth inhibition (GI50) in assay [1] lay in the range of 0.1 to 1 µM. For the same compound, in assay [2], the IC50 is less than 0.1 µM.

In the case of `Cc1cn2nc(-c3ccc4c(=O)n(C5CCNCC5)ccc4c3)cc(Oc3ccccc3F)c2n1` [Compound 544, 6-[8-(2-fluorophenoxy)-2-methyl-imidazo[1,2-b]pyridazin-6-yl]-2-(4-piperidyl) isoquinolin-1-one; hydrochloride], in assay [1], the GI50 is 0.1 to 1 µM. In addition, in assay [2], the IC50 is less than 0.1 µM.

Source of the values: patent publication US20250332173A1, “COMPOUNDS AND METHODS FOR MODULATING NUCLEIC ACID SPLICING” (REMIX THERAPEUTICS INC., priority 2021, published 2025).
